The source of these data is publication PMC9065678, “BI 1015550 is a PDE4B Inhibitor and a Clinical Drug Candidate for the Oral Treatment of Idiopathic Pulmonary Fibrosis” (Frontiers in Pharmacology, 2022).

The target in assay [1] is T1, PDE2A (Homo sapiens, UniProt O00408).
T1 construct: Eurofins Cerep
The assay can be described thus: PDE2A inhibition screen at Eurofins Cerep. In kind it is biochemical. Particulars: screened at Eurofins Cerep.

Assay [2] concerns LPS-stimulated IL-6 release. The experiment in a line: LPS-stimulated IL-6 release in human whole blood. It is filed as cell-based. Particulars: high concentrations. As to the method:
Heparinized whole blood was collected from the Aorta abdominalis of WI (Han) male rats (Charles River Laboratories, Sulzfeld, Germany) and from healthy male human donors, and treated with 1 µL (rat) or 2.5 µL (human) of BI 1015550 or vehicle [final DMSO concentration 0.5% (v/v)]. Final assay volumes were 200 μL (rat) and 500 μL (human). After incubation for 30 min at 37°C, 95% humidity, and 5% CO2, cultures were treated with LPS [final concentration 10 µg/mL (rat), 0.1 µg/mL (human)] or saline. After 7 h, plates were centrifuged at 3.200 × g at 4°C for 10 min and plasma was used for cytokine measurement. Meso Scale Discovery (MSD) (Rockville, MD, United States) rat and human pro-inflammatory panels were used for detection of TNF-α and IL-6 in rat plasma [diluted 1:2 (v/v)]) and human plasma [negative control undiluted, other samples diluted 1:200 (v/v)] according to the manufacturer’s instructions.

Assay [3] concerns Col1A1 mRNA expression. The assay can be described thus: TGF-β-induced Col1A1 mRNA expression in IPF lung fibroblasts (Taqman). It is filed as cell-based, human. Particulars: IPF-LF, TGF-β 4 ng/mL, 48 h; read-out: IC50 TGF-β-induced Col1 mRNA expression. How it is done: Fibroblasts from donors with IPF (IPF-LF) (Asterand, Detroit, MI, United States) were grown in fibroblast basal medium (CC-3131, Lonza Walkersville, Inc., Walkersville, MD, United States) supplemented with FGM-2 SingleQuot Kit Supplements and Growth Factors (CC-4126, Lonza). Cells were grown in a humidified incubator at 37°C and 5% CO2. All assays were performed at passage 7 or 8. For assay set-up, cells were seeded in fibroblast growth medium plus supplements in assay-relevant densities. For TGF-β-stimulated assays, cells were seeded at 4,500 cells per well in 96-well plates. Proliferation assays were performed in 96-well plates at an initial seeding cell density on day 0 of 2,000 cells per well. After 24-h, the cell culture medium was changed to starvation medium (fibroblast basal medium without supplements). […]
For determination of Col1A1, Col3A1, and FN mRNA expression, IPF-LF cells were stimulated with TGF-β (4 ng/mL) for 48 h. […] Quantitative real-time polymerase chain reactions were set up using the TaqMan™ Fast Advanced Master Mix (Applied Biosystems, Carlsbad, CA, United States) and species-specific gene expression assays: Col1A1 #Hs00164004_m1 FAM, Col3A1 #Hs0094309_m1 FAM, FN #Hs01549976_m1 FAM, 18S #4310893E. […] Fold-change of gene expression was calculated by the Viia7 software (regulation based upon housekeeper).

The subject of assay [4] is LPS-induced TNF-α release. The experiment in a line: LPS-induced TNF-α release in human PBMCs. In kind it is cell-based. Particulars: 100 ng/mL LPS for 4 h. As to the method:
Blood was donated by internal donors at the Center for Occupational Health at Boehringer Ingelheim in Biberach an der Riss, Germany; the donors provided signed informed consent that allows use for scientific purposes. All research was performed in accordance with the principles stated in the Declaration of Helsinki. Ethical approval was provided by the Federal State Medical Association of Baden-Württemberg, reference no. F-2016–121. For preparation of peripheral blood mononuclear cells (PBMCs), 200 mL freshly drawn human blood from healthy donors was mixed with 50 mL acid-citrate-dextrose solution (38 mmol/L citric acid, 75 mmol/L tri-sodium citrate and 121 mmol/L glucose) and 50 mL Hanks buffered saline solution (Thermo Fisher Scientific, Carlsbad, CA, United States), overlaid on Ficoll and centrifuged for 30 min at 300 x g. PBMCs were diluted in RPMI-1640 medium (Thermo Fisher Scientific) containing 6% (v/v) autologous plasma to a concentration of 5 × 10^6 cells/mL. […] Supernatants were taken and cytokines measured by enzyme-linked immunosorbent assay (ELISA; Becton Dickinson, Franklin Lakes, NJ, United States).

For assay [5], the system named is LPS-induced TNF-α release in whole blood ex vivo. The experiment in a line: LPS-induced TNF-α release in whole blood ex vivo in mice. Set-up: species or system mouse. As to the method: BI 1015550 was suspended in H2O plus three equivalents’ HCl (i.e. 66 µL HCl per mg of drug substance) to concentrations of […]. Female NMRI mice from Charles River (25–30 g) were used. Either vehicle (H2O plus three equivalents’ HCl) or BI 1015550 was administered orally (by gavage) in a volume of 10 mL/kg body weight resulting in final doses of 3.0, 1.0, 0.1, and 0.01 mg/kg body weight. 2 h after administration, the animals were anesthetized and blood was drawn by retroorbital puncture with heparinized capillaries before sacrifice by cervical dislocation. Blood was collected in Lithium-Heparin Microvettes® for anticoagulation. 100 µL of whole blood was pipetted into an Eppendorf tube containing either LPS solution (final concentration 900 ng/mL) or solvent. Subsequently, the samples were placed for 4 h in an incubator at 37°C, […], and 95% humidity before plasma was prepared by a two-step centrifugation at 10.840 × g over 10 min at 4°C. TNF-α concentrations in the plasma samples were determined using a commercially available TNF-α ELISA kit (BD OptEIA™ Mouse TNF ELISA Set from Becton Dickinson) according to the manufacturer’s instructions.

T1 sequence (O00408 whole entry): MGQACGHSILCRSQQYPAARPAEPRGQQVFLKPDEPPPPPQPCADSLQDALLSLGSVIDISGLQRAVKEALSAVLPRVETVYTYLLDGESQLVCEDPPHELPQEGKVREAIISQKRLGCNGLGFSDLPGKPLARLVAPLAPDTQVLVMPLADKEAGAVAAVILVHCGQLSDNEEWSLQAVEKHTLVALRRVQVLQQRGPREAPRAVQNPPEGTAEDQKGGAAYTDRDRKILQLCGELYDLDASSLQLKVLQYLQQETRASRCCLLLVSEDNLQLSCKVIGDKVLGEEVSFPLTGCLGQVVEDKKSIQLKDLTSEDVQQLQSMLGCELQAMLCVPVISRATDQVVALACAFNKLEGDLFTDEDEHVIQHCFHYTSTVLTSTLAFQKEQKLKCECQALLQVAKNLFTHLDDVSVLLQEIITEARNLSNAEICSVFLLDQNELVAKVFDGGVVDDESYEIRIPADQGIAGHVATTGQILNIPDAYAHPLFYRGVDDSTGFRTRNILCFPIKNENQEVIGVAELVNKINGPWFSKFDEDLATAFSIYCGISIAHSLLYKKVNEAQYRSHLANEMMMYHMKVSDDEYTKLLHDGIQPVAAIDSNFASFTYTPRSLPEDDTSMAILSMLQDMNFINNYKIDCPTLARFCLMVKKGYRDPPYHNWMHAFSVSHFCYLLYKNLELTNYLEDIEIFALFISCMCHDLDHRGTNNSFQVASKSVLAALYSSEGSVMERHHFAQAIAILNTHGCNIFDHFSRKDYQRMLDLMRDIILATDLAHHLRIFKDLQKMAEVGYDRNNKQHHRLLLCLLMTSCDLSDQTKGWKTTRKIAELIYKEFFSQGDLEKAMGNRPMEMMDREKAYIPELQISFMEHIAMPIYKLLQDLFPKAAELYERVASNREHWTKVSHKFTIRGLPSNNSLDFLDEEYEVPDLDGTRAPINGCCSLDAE

On to `[O-][S+]1CCc2nc(N3CCC(c4ncc(Cl)cn4)CC3)nc(NC3(CO)CCC3)c21` (stereo not shown) [BI 1015550], for which the “Inhibition of human PDE2A” value in assay [1] is given as “did not inhibit”. For the same compound, the IL-6 increase entry in assay [2] is listed as “did not result in an IL-6 increase”. Also, the “Maximum inhibition of IL-6 release” value in assay [2] is 30–40%. The IC50 in assay [3] came to 269 nM; in assay [4], 35 nM. Also, the “TNF-α concentration in plasma, inhibition in % given as negative number” value was −38% in assay [5] (0.01 mg/kg p.o.), −50% in assay [5] (0.1 mg/kg p.o.) and −83% in assay [5] (1.0 mg/kg p.o.). In addition, in assay [5] (3 mg/kg oral, initial experiment, data not shown), the “Inhibition of TNF-α” value is given as 93%. Moreover, the “ED50 of LPS-induced TNF-α release” value in assay [5] (oral, blood taken 2 h after administration, LPS 4 h) came out at 0.04 mg/kg.
